Data published in ChEMBL document CHEMBL1201861, “Genomics of Drug Sensitity in Cancer screening data, Wellcome Trust Sanger Institute”.

Columns and labels:
Assay in all cases: cells
SBC-1 = type: functional, cell-based, Homo sapiens; settings: Homo sapiens, SBC-1;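 note: cell viability assay measuring growth inhibition of the SBC-1 cell line, IC50 being the concentration that halves growth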
Description: SANGER: Inhibition of human SBC-1 cell growth in a cell viability assay.

GOTO = type: functional, cell-based, Homo sapiens; settings: Homo sapiens, GOTO;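 note: growth inhibition of GOTO cells, read out by a cell viability assay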
Description: SANGER: Inhibition of human GOTO cell growth in a cell viability assay.

GR-ST = type: functional, cell-based, Homo sapiens; settings: Homo sapiens, GR-ST
Description: SANGER: Inhibition of human GR-ST cell growth in a cell viability assay.

MOLT-16 = type: functional, cell-based, Homo sapiens; settings: Homo sapiens, MOLT-16;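 note: growth inhibition of human MOLT-16 cells, read out with a cell viability assay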
Description: SANGER: Inhibition of human MOLT-16 cell growth in a cell viability assay.

IST-MES1 = type: functional, cell-based, Homo sapiens; settings: Homo sapiens, IST-MES1;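 note: growth inhibition of IST-MES1 cells, measured with a cell viability assay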
Description: SANGER: Inhibition of human IST-MES1 cell growth in a cell viability assay.

NCI-H1155 = type: functional, cell-based, Homo sapiens; settings: Homo sapiens, NCI-H1155;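 note: cell growth inhibition measured by a viability assay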
Description: SANGER: Inhibition of human NCI-H1155 cell growth in a cell viability assay.

MSTO-211H = type: functional, cell-based, Homo sapiens; settings: Homo sapiens, MSTO-211H
Description: SANGER: Inhibition of human MSTO-211H cell growth in a cell viability assay.

ES7 = type: functional, cell-based, Homo sapiens; settings: Homo sapiens, ES7;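 note: growth inhibition of cultured human ES7 cells, read out as cell viability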
Description: SANGER: Inhibition of human ES7 cell growth in a cell viability assay.

COLO-668 = type: functional, cell-based, Homo sapiens; settings: Homo sapiens, COLO-668
Description: SANGER: Inhibition of human COLO-668 cell growth in a cell viability assay.

TGW = type: functional, cell-based, Homo sapiens; settings: Homo sapiens, TGW;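 note: growth inhibition of human TGW cells, read out with a cell viability assay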
Description: SANGER: Inhibition of human TGW cell growth in a cell viability assay.

NB69 = type: functional, cell-based, Homo sapiens; settings: Homo sapiens, NB69;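 note: growth inhibition of NB69 cells, determined by a cell viability assay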
Description: SANGER: Inhibition of human NB69 cell growth in a cell viability assay.

NH-12 = type: functional, cell-based, Homo sapiens; settings: Homo sapiens, NH-12;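 note: growth inhibition of NH-12 cells, read out with a cell viability assay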
Description: SANGER: Inhibition of human NH-12 cell growth in a cell viability assay.

SK-NEP-1 = type: functional, cell-based, Homo sapiens; settings: Homo sapiens, SK-NEP-1;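 note: growth inhibition of human SK-NEP-1 cells, read out by a cell viability assay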
Description: SANGER: Inhibition of human SK-NEP-1 cell growth in a cell viability assay.

DMS-114 = type: functional, cell-based, Homo sapiens; settings: Homo sapiens, DMS-114
MZ2-MEL = type: functional, cell-based, Homo sapiens; settings: Homo sapiens, MZ2-MEL;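 note: growth inhibition of MZ2-MEL cells read out with a cell viability assay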
Description: SANGER: Inhibition of human MZ2-MEL cell growth in a cell viability assay.

UACC-257 = type: functional, cell-based, Homo sapiens; settings: Homo sapiens, UACC-257
Description: SANGER: Inhibition of human UACC-257 cell growth in a cell viability assay.

NTERA-2-cl-D1 = type: functional, cell-based, Homo sapiens; settings: Homo sapiens, NTERA-2-cl-D1;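 note: inhibition of cell growth, measured with a cell viability assay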
Description: SANGER: Inhibition of human NTERA-S-cl-D1 cell growth in a cell viability assay.

Ramos-2G6-4C10 = type: functional, cell-based, Homo sapiens; settings: Homo sapiens, Ramos-2G6-4C10;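 note: growth inhibition of the cell line, measured by a cell viability read-out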
Description: SANGER: Inhibition of human Ramos-2G6-4C10 cell growth in a cell viability assay.

A101D = type: functional, cell-based, Homo sapiens; settings: Homo sapiens, A101D;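 note: growth inhibition of the cell line, measured with a viability assay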
Description: SANGER: Inhibition of human A101D cell growth in a cell viability assay.

SF-268 = type: functional, cell-based, Homo sapiens; settings: Homo sapiens, SF-268;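 note: growth inhibition of SF-268 cells determined with a cell viability assay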
Description: SANGER: Inhibition of human SF268 cell growth in a cell viability assay.

TE-6 = type: functional, cell-based, Homo sapiens; settings: Homo sapiens, TE-6;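 note: growth inhibition of TE-6 cells, read out with a cell viability assay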
Description: SANGER: Inhibition of human TE-6 cell growth in a cell viability assay.

COLO-824 = type: functional, cell-based, Homo sapiens; settings: Homo sapiens, COLO-824
Description: SANGER: Inhibition of human COLO-824 cell growth in a cell viability assay.

no-11 = type: functional, cell-based, Homo sapiens; settings: Homo sapiens;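 note: growth inhibition of human NO-11 cells, read out with a cell viability assay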
Description: SANGER: Inhibition of human no-11 cell growth in a cell viability assay.

COLO-800 = type: functional, cell-based, Homo sapiens; settings: Homo sapiens, COLO-800;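 note: growth inhibition of COLO-800 cells, read out with a cell viability assay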
Description: SANGER: Inhibition of human COLO-800 cell growth in a cell viability assay.

BV-173 = type: functional, cell-based, Homo sapiens; settings: Homo sapiens, BV-173
Description: SANGER: Inhibition of human BV-173 cell growth in a cell viability assay.

GI-1 = type: functional, cell-based, Homo sapiens; settings: Homo sapiens, GI-1;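 note: growth inhibition of human GI-1 cells, measured with a cell viability readout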
Description: SANGER: Inhibition of human GI-1 cell growth in a cell viability assay.

MZ1-PC = type: functional, cell-based, Homo sapiens; settings: Homo sapiens, MZ1-PC;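 note: cell viability assay measuring growth inhibition of human MZ1-PC cells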
Description: SANGER: Inhibition of human MZ1-PC cell growth in a cell viability assay.

OCI-AML2 = type: functional, cell-based, Homo sapiens; settings: Homo sapiens, OCI-AML2;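 note: growth inhibition of OCI-AML2 cells, read out with a cell viability assay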
Description: SANGER: Inhibition of human OCI-AML2 cell growth in a cell viability assay.

EW-1 = type: functional, cell-based, Homo sapiens; settings: Homo sapiens, EW-1;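 note: growth inhibition of the human EW-1 cell line, read out by a cell viability assay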
Description: SANGER: Inhibition of human EW-1 cell growth in a cell viability assay.

CTB-1 = type: functional, cell-based, Homo sapiens; settings: Homo sapiens, CTB-1
Description: SANGER: Inhibition of human CTB-1 cell growth in a cell viability assay.

LB2518-MEL = type: functional, cell-based; settings: Homo sapiens;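 note: growth inhibition of human LB2518-MEL cells, measured with a cell viability assay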
Description: SANGER: Inhibition of human LB2518-MEL cell growth in a cell viability assay.

NCI-H1299 = type: functional, cell-based; settings: Homo sapiens;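 note: growth inhibition of human NCI-H1299 cells, read out by a cell viability assay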
Description: SANGER: Inhibition of human NCI-H1299 cell growth in a cell viability assay.

KINGS-1 = type: functional, cell-based, Homo sapiens; settings: Homo sapiens, KINGS-1;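 note: cell viability assay measuring suppression of KINGS-1 cell growth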
Description: SANGER: Inhibition of human KINGS-1 cell growth in a cell viability assay.

NMC-G1 = type: functional, cell-based, Homo sapiens; settings: Homo sapiens, NMC-G1;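 note: growth inhibition of the NMC-G1 cell line, measured with a cell viability read-out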
Description: SANGER: Inhibition of human NMC-G1 cell growth in a cell viability assay.

NCI-H1838 = type: functional, cell-based, Homo sapiens; settings: Homo sapiens, NCI-H1838;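 note: growth inhibition of NCI-H1838 cells, determined with a cell viability readout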
Description: SANGER: Inhibition of human NCI-H1838 cell growth in a cell viability assay.

KNS-81-FD = type: functional, cell-based, Homo sapiens; settings: Homo sapiens, KNS-81-FD;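 note: growth inhibition of KNS-81-FD cells, read out with a cell viability assay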
Description: SANGER: Inhibition of human KNS-81-FD cell growth in a cell viability assay.

ONS-76 = type: functional, cell-based, Homo sapiens; settings: Homo sapiens, ONS-76;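 note: growth inhibition of human ONS-76 cells, read out with a cell viability assay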
Description: SANGER: Inhibition of human ONS-76 cell growth in a cell viability assay.

NCI-H1581 = type: functional, cell-based, Homo sapiens; settings: Homo sapiens, NCI-H1581;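 note: cell growth inhibition read out by a viability assay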
Description: SANGER: Inhibition of human NCI-H1581 cell growth in a cell viability assay.

NB6 = type: functional, cell-based, Homo sapiens; settings: Homo sapiens, NB6
Description: SANGER: Inhibition of human NB6 cell growth in a cell viability assay.

NOS-1 = type: functional, cell-based, Homo sapiens; settings: Homo sapiens, NOS-1;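 note: growth inhibition of the human NOS-1 cell line, read out with a cell viability assay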
Description: SANGER: Inhibition of human NOS-1 cell growth in a cell viability assay.

DOHH-2 = type: functional, cell-based, Homo sapiens; settings: Homo sapiens, DOHH-2;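 note: growth inhibition of human DOHH-2 cells, read out with a cell viability assay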
Description: SANGER: Inhibition of human DOHH-2 cell growth in a cell viability assay.

K5 = type: functional, cell-based, Homo sapiens; settings: Homo sapiens, K5
Description: SANGER: Inhibition of human K5 cell growth in a cell viability assay.

TE-10 = type: functional, cell-based, Homo sapiens; settings: Homo sapiens, TE-10;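 note: growth inhibition of TE-10 cells, measured by a cell viability assay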
Description: SANGER: Inhibition of human TE-10 cell growth in a cell viability assay.

ML-2 = type: functional, cell-based, Homo sapiens; settings: Homo sapiens, ML-2;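 note: growth inhibition of ML-2 cells, measured with a cell viability readout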
Description: SANGER: Inhibition of human ML-2 cell growth in a cell viability assay.

EM-2 = type: functional, cell-based, Homo sapiens; settings: Homo sapiens, EM-2;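 note: growth inhibition of EM-2 cells, read out with a cell viability assay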
Description: SANGER: Inhibition of human EM-2 cell growth in a cell viability assay.

HT = type: functional, cell-based, Homo sapiens; settings: Homo sapiens, HT
Description: SANGER: Inhibition of human HT cell growth in a cell viability assay.

TE-9 = type: functional, cell-based, Homo sapiens; settings: Homo sapiens, TE-9;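 note: cell growth inhibition, measured with a cell viability readout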
Description: SANGER: Inhibition of human TE-9 cell growth in a cell viability assay.

DB = type: functional, cell-based, Homo sapiens; settings: Homo sapiens, DB
Description: SANGER: Inhibition of human DB cell growth in a cell viability assay.

CW-2 = type: functional, cell-based, Homo sapiens; settings: Homo sapiens, CW-2;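 note: growth inhibition of CW-2 cells, read out by a cell viability assay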
Description: SANGER: Inhibition of human CW-2 cell growth in a cell viability assay.

RH-1 = type: functional, cell-based, Homo sapiens; settings: Homo sapiens, RH-1;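 note: growth inhibition of human RH-1 cells, read out with a cell viability assay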
Description: SANGER: Inhibition of human RH-1 cell growth in a cell viability assay.

COc1ccc(-c2cc3nccn3c(Nc3ncccc3C(N)=O)n2)cc1OC
IC50 (SBC-1): > 8000 nM | IC50 (GOTO): 3420 nM | IC50 (GR-ST): 3700 nM | IC50 (MOLT-16): 571 nM | IC50 (IST-MES1): > 8000 nM | IC50 (NCI-H1155): > 8000 nM | IC50 (MSTO-211H): > 8000 nM | IC50 (ES7): 1090 nM | IC50 (COLO-668): > 8000 nM | IC50 (TGW): > 8000 nM | IC50 (NB69): > 8000 nM | IC50 (NH-12): 2490 nM | IC50 (SK-NEP-1): 4530 nM | IC50 (DMS-114): > 8000 nM | IC50 (MZ2-MEL): 3480 nM | IC50 (UACC-257): > 8000 nM | IC50 (NTERA-2-cl-D1): 1960 nM | IC50 (Ramos-2G6-4C10): 2950 nM | IC50 (A101D): 4870 nM | IC50 (SF-268): 2830 nM | IC50 (TE-6): 6970 nM | IC50 (COLO-824): > 8000 nM | IC50 (no-11): > 8000 nM | IC50 (COLO-800): > 8000 nM | IC50 (BV-173): > 8000 nM | IC50 (GI-1): 5410 nM | IC50 (MZ1-PC): 3490 nM | IC50 (OCI-AML2): 4480 nM | IC50 (EW-1): 1170 nM | IC50 (CTB-1): > 8000 nM | IC50 (LB2518-MEL): > 8000 nM | IC50 (NCI-H1299): > 8000 nM | IC50 (KINGS-1): > 8000 nM | IC50 (NMC-G1): 7550 nM | IC50 (NCI-H1838): > 8000 nM | IC50 (KNS-81-FD): > 8000 nM | IC50 (ONS-76): > 8000 nM | IC50 (NCI-H1581): > 8000 nM | IC50 (NB6): > 8000 nM | IC50 (NOS-1): 481 nM | IC50 (DOHH-2): 2030 nM | IC50 (K5): 2930 nM | IC50 (TE-10): 1760 nM | IC50 (ML-2): > 8000 nM | IC50 (EM-2): > 8000 nM | IC50 (HT): 6220 nM | IC50 (TE-9): > 8000 nM | IC50 (DB): 6640 nM | IC50 (CW-2): > 8000 nM | IC50 (RH-1): 4670 nM

COC(=O)[C@H](CCSC)NC(=O)c1ccc(NC[C@@H](N)CS)cc1-c1ccccc1
IC50 (SBC-1): > 1020 nM | IC50 (GOTO): > 1020 nM | IC50 (GR-ST): > 1020 nM | IC50 (MOLT-16): > 1020 nM | IC50 (IST-MES1): > 1020 nM | IC50 (NCI-H1155): > 1020 nM | IC50 (MSTO-211H): > 1020 nM | IC50 (ES7): > 1020 nM | IC50 (COLO-668): > 1020 nM | IC50 (TGW): > 1020 nM | IC50 (NB69): > 1020 nM | IC50 (NH-12): > 1020 nM | IC50 (SK-NEP-1): > 1020 nM | IC50 (DMS-114): > 1020 nM | IC50 (MZ2-MEL): > 1020 nM | IC50 (UACC-257): > 1020 nM | IC50 (NTERA-2-cl-D1): > 1020 nM | IC50 (Ramos-2G6-4C10): > 1020 nM | IC50 (A101D): > 1020 nM | IC50 (SF-268): > 1020 nM | IC50 (TE-6): > 1020 nM | IC50 (COLO-824): > 1020 nM | IC50 (no-11): > 1020 nM | IC50 (COLO-800): > 1020 nM | IC50 (BV-173): > 1020 nM | IC50 (GI-1): > 1020 nM | IC50 (MZ1-PC): > 1020 nM | IC50 (OCI-AML2): > 1020 nM | IC50 (EW-1): > 1020 nM | IC50 (CTB-1): > 1020 nM | IC50 (LB2518-MEL): > 1020 nM | IC50 (NCI-H1299): > 1020 nM | IC50 (KINGS-1): > 1020 nM | IC50 (NMC-G1): > 1020 nM | IC50 (NCI-H1838): > 1020 nM | IC50 (KNS-81-FD): > 1020 nM | IC50 (ONS-76): 838 nM | IC50 (NCI-H1581): > 1020 nM | IC50 (NB6): > 1020 nM | IC50 (NOS-1): > 1020 nM | IC50 (DOHH-2): > 1020 nM | IC50 (K5): > 1020 nM | IC50 (TE-10): > 1020 nM | IC50 (ML-2): > 1020 nM | IC50 (EM-2): > 1020 nM | IC50 (HT): > 1020 nM | IC50 (TE-9): > 1020 nM | IC50 (DB): > 1020 nM | IC50 (CW-2): > 1020 nM | IC50 (RH-1): > 1020 nM
